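1) Cells in 96-well plates. 2) Compound, 48 h, 5 concentrations. 3) Linear interpolation between surrounding doses. 4) Unreached endpoint = highest concentration. GI50: concentration for 50% inhibition of growth. TGI denotes the concentration required for complete inhibition of growth.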 The source made the active and inactive calls. No stated cut-off is given here; in the data, active means GI50 below about 0.43 µM; inactive means the rest.
How the values were obtained:
Test in all cases: DTP human tumour cell line panel, 48 h
HS 578T breast = tested on: HS 578T breast
OVCAR-5 ovarian = tested on: OVCAR-5 ovarian
EKVX NSCLC = tested on: EKVX NSCLC
SN12C renal = tested on: SN12C renal
A498 renal = tested on: A498 renal
SF-539 CNS = tested on: SF-539 CNS
MDA-MB-231 breast = tested on: MDA-MB-231 breast
MOLT-4 leukemia = tested on: MOLT-4 leukemia
KM12 colon = tested on: KM12 colon
OVCAR-4 ovarian = tested on: OVCAR-4 ovarian
UACC-62 melanoma = tested on: UACC-62 melanoma
RPMI-8226 leukemia = tested on: RPMI-8226 leukemia
CAKI-1 renal = tested on: CAKI-1 renal
NCI-H522 lung = tested on: NCI-H522 lung
M14 melanoma = tested on: M14 melanoma
786-0 renal = tested on: 786-0 renal
HCT-116 colon = tested on: HCT-116 colon
PC-3 prostate = tested on: PC-3 prostate
SNB-19 CNS = tested on: SNB-19 CNS
HOP-62 NSCLC = tested on: HOP-62 NSCLC
NCI/ADR-RES ovarian = tested on: NCI/ADR-RES ovarian
UACC-257 melanoma = tested on: UACC-257 melanoma
UO-31 renal = tested on: UO-31 renal
NCI-H460 lung = tested on: NCI-H460 lung
HL-60(TB) leukemia = tested on: HL-60(TB) leukemia
CCRF-CEM leukemia = tested on: CCRF-CEM leukemia
SW-620 colon = tested on: SW-620 colon
SK-OV-3 ovarian = tested on: SK-OV-3 ovarian
MALME-3M melanoma = tested on: MALME-3M melanoma
MDA-MB-435 = tested on: MDA-MB-435
NCI-H23 lung = tested on: NCI-H23 lung
SF-268 CNS = tested on: SF-268 CNS
SK-MEL-2 melanoma = tested on: SK-MEL-2 melanoma
HCT-15 colon = tested on: HCT-15 colon
OVCAR-3 ovarian = tested on: OVCAR-3 ovarian
BT-549 breast = tested on: BT-549 breast
OVCAR-8 ovarian = tested on: OVCAR-8 ovarian
IGROV1 ovarian = tested on: IGROV1 ovarian
K-562 leukemia = tested on: K-562 leukemia
RXF 393 renal = tested on: RXF 393 renal
SF-295 CNS = tested on: SF-295 CNS
ACHN renal = tested on: ACHN renal
COLO 205 colon = tested on: COLO 205 colon
U251 CNS = tested on: U251 CNS
SNB-75 CNS = tested on: SNB-75 CNS
A549 NSCLC = tested on: A549 NSCLC
HT29 colon = tested on: HT29 colon
DU-145 prostate = tested on: DU-145 prostate
T-47D breast = tested on: T-47D breast
LOX IMVI melanoma = tested on: LOX IMVI melanoma
SK-MEL-5 melanoma = tested on: SK-MEL-5 melanoma
TK-10 renal = tested on: TK-10 renal
SR leukemia = tested on: SR leukemia
MCF7 breast = tested on: MCF7 breast
SK-MEL-28 melanoma = tested on: SK-MEL-28 melanoma
NCI-H226 lung = tested on: NCI-H226 lung
HCC-2998 colon = tested on: HCC-2998 colon
HOP-92 NSCLC = tested on: HOP-92 NSCLC

CS(C)(=O)=O
inactive: outcome (HS 578T breast) | outcome (OVCAR-5 ovarian) | outcome (EKVX NSCLC) | outcome (SN12C renal) | GI50 (A498 renal) 42000 µM | outcome (SF-539 CNS) | outcome (MDA-MB-231 breast) | outcome (MOLT-4 leukemia) | outcome (KM12 colon) | outcome (OVCAR-4 ovarian) | outcome (UACC-62 melanoma) | outcome (RPMI-8226 leukemia) | outcome (CAKI-1 renal) | outcome (NCI-H522 lung) | outcome (M14 melanoma) | outcome (786-0 renal) | outcome (HCT-116 colon) | outcome (PC-3 prostate) | outcome (SNB-19 CNS) | outcome (HOP-62 NSCLC) | outcome (NCI/ADR-RES ovarian) | outcome (UACC-257 melanoma) | outcome (UO-31 renal) | outcome (NCI-H460 lung) | outcome (HL-60(TB) leukemia) | outcome (CCRF-CEM leukemia) | outcome (SW-620 colon) | outcome (SK-OV-3 ovarian) | outcome (MALME-3M melanoma) | outcome (MDA-MB-435) | outcome (NCI-H23 lung) | outcome (SF-268 CNS) | outcome (SK-MEL-2 melanoma) | outcome (HCT-15 colon) | outcome (OVCAR-3 ovarian) | outcome (BT-549 breast) | outcome (OVCAR-8 ovarian) | outcome (IGROV1 ovarian) | outcome (K-562 leukemia) | outcome (RXF 393 renal) | outcome (SF-295 CNS) | outcome (ACHN renal) | outcome (COLO 205 colon) | outcome (U251 CNS) | outcome (SNB-75 CNS) | outcome (A549 NSCLC) | outcome (HT29 colon) | outcome (DU-145 prostate) | outcome (T-47D breast) | outcome (LOX IMVI melanoma) | outcome (SK-MEL-5 melanoma) | outcome (TK-10 renal) | outcome (SR leukemia) | outcome (MCF7 breast) | outcome (SK-MEL-28 melanoma) | outcome (NCI-H226 lung)

COc1cccc(C2SCC(=O)N2c2ccc(-c3ccc(-n4c(-c5ccccc5)nc5ccccc5c4=O)cc3)cc2)c1OC (stereo not drawn)
89.1 µM: TGI (SNB-75 CNS)
> 100 µM: TGI (HS 578T breast) | TGI (OVCAR-5 ovarian) | TGI (EKVX NSCLC) | TGI (SN12C renal) | TGI (A498 renal) | TGI (SF-539 CNS) | TGI (MDA-MB-231 breast) | TGI (MOLT-4 leukemia) | TGI (KM12 colon) | TGI (OVCAR-4 ovarian) | TGI (UACC-62 melanoma) | TGI (HCC-2998 colon) | TGI (RPMI-8226 leukemia) | TGI (CAKI-1 renal) | TGI (NCI-H522 lung) | TGI (M14 melanoma) | TGI (786-0 renal) | TGI (HCT-116 colon) | TGI (PC-3 prostate) | TGI (SNB-19 CNS) | TGI (HOP-62 NSCLC) | TGI (NCI/ADR-RES ovarian) | TGI (UACC-257 melanoma) | TGI (UO-31 renal) | TGI (NCI-H460 lung) | TGI (HL-60(TB) leukemia) | TGI (CCRF-CEM leukemia) | TGI (MALME-3M melanoma) | TGI (MDA-MB-435) | TGI (NCI-H23 lung) | TGI (SF-268 CNS) | TGI (SK-MEL-2 melanoma) | TGI (HCT-15 colon) | TGI (OVCAR-3 ovarian) | TGI (BT-549 breast) | TGI (OVCAR-8 ovarian) | TGI (IGROV1 ovarian) | TGI (K-562 leukemia) | TGI (SF-295 CNS) | TGI (ACHN renal) | TGI (COLO 205 colon) | TGI (U251 CNS) | TGI (HOP-92 NSCLC) | TGI (A549 NSCLC) | TGI (HT29 colon) | TGI (DU-145 prostate) | TGI (T-47D breast) | TGI (LOX IMVI melanoma) | TGI (SK-MEL-5 melanoma) | TGI (TK-10 renal) | TGI (SR leukemia) | TGI (MCF7 breast) | TGI (SK-MEL-28 melanoma) | TGI (NCI-H226 lung)

COc1ccc(C(=O)C2C(C#N)C(C#N)C3C=Cc4ccccc4N32)cc1 (stereo not drawn)
19.5 µM: TGI (HL-60(TB) leukemia)
> 100 µM: TGI (HS 578T breast) | TGI (OVCAR-5 ovarian) | TGI (EKVX NSCLC) | TGI (SN12C renal) | TGI (MOLT-4 leukemia) | TGI (KM12 colon) | TGI (OVCAR-4 ovarian) | TGI (UACC-62 melanoma) | TGI (HCC-2998 colon) | TGI (RPMI-8226 leukemia) | TGI (CAKI-1 renal) | TGI (NCI-H522 lung) | TGI (M14 melanoma) | TGI (786-0 renal) | TGI (PC-3 prostate) | TGI (SNB-19 CNS) | TGI (HOP-62 NSCLC) | TGI (NCI/ADR-RES ovarian) | TGI (UACC-257 melanoma) | TGI (UO-31 renal) | TGI (NCI-H460 lung) | TGI (CCRF-CEM leukemia) | TGI (SW-620 colon) | TGI (SK-OV-3 ovarian) | TGI (MALME-3M melanoma) | TGI (NCI-H23 lung) | TGI (SF-268 CNS) | TGI (SK-MEL-2 melanoma) | TGI (HCT-15 colon) | TGI (BT-549 breast) | TGI (OVCAR-8 ovarian) | TGI (IGROV1 ovarian) | TGI (K-562 leukemia) | TGI (SF-295 CNS) | TGI (ACHN renal) | TGI (U251 CNS) | TGI (HOP-92 NSCLC) | TGI (A549 NSCLC) | TGI (HT29 colon) | TGI (DU-145 prostate) | TGI (T-47D breast) | TGI (LOX IMVI melanoma) | TGI (TK-10 renal) | TGI (SR leukemia) | TGI (MCF7 breast) | TGI (SK-MEL-28 melanoma)
19.8 µM: TGI (SK-MEL-5 melanoma)
4.22 µM: TGI (OVCAR-3 ovarian)
14.9 µM: TGI (HCT-116 colon)
5.57 µM: TGI (SNB-75 CNS)
active: GI50 (A498 renal) 0.244 µM | GI50 (MDA-MB-435) 0.335 µM | GI50 (K-562 leukemia) 0.405 µM | GI50 (SNB-75 CNS) 0.278 µM
30.2 µM: TGI (NCI-H226 lung)
44.1 µM: TGI (MDA-MB-231 breast)
inactive: GI50 (HS 578T breast) 2.1 µM | GI50 (OVCAR-5 ovarian) 3.43 µM | GI50 (EKVX NSCLC) 6.29 µM | GI50 (SN12C renal) 2.5 µM | GI50 (SF-539 CNS) 1.32 µM | GI50 (MDA-MB-231 breast) 1.46 µM | GI50 (MOLT-4 leukemia) 2.6 µM | GI50 (KM12 colon) 1.25 µM | GI50 (OVCAR-4 ovarian) 6 µM | GI50 (UACC-62 melanoma) 0.781 µM | GI50 (HCC-2998 colon) 2.99 µM | GI50 (RPMI-8226 leukemia) 3.48 µM | GI50 (CAKI-1 renal) 0.46 µM | GI50 (NCI-H522 lung) 2.45 µM | GI50 (M14 melanoma) 0.5 µM | GI50 (786-0 renal) 4.43 µM | GI50 (HCT-116 colon) 0.653 µM | GI50 (PC-3 prostate) 1.45 µM | GI50 (SNB-19 CNS) 3.71 µM | GI50 (HOP-62 NSCLC) 3.76 µM | GI50 (NCI/ADR-RES ovarian) 0.571 µM | GI50 (UACC-257 melanoma) > 100 µM | GI50 (UO-31 renal) 1.95 µM | GI50 (NCI-H460 lung) 0.749 µM | GI50 (HL-60(TB) leukemia) 1.23 µM | GI50 (CCRF-CEM leukemia) 1.94 µM | GI50 (SW-620 colon) 0.714 µM | GI50 (SK-OV-3 ovarian) 7.3 µM | GI50 (MALME-3M melanoma) 2.67 µM | GI50 (NCI-H23 lung) 3.62 µM | GI50 (SF-268 CNS) 3.92 µM | GI50 (SK-MEL-2 melanoma) 7.44 µM | GI50 (HCT-15 colon) 0.844 µM | GI50 (OVCAR-3 ovarian) 0.642 µM | GI50 (BT-549 breast) 1.98 µM | GI50 (OVCAR-8 ovarian) 3.29 µM | GI50 (IGROV1 ovarian) 2.74 µM | GI50 (SF-295 CNS) 2.82 µM | GI50 (ACHN renal) 1.43 µM | GI50 (U251 CNS) 2.82 µM | GI50 (HOP-92 NSCLC) 2.77 µM | GI50 (A549 NSCLC) 2.4 µM | GI50 (HT29 colon) 0.742 µM | GI50 (DU-145 prostate) 2.93 µM | GI50 (T-47D breast) 23.9 µM | GI50 (LOX IMVI melanoma) 2.1 µM | GI50 (SK-MEL-5 melanoma) 3.49 µM | GI50 (TK-10 renal) > 100 µM | GI50 (SR leukemia) 0.544 µM | GI50 (MCF7 breast) 1.09 µM | GI50 (SK-MEL-28 melanoma) 3.77 µM | GI50 (NCI-H226 lung) 2.29 µM
1.24 µM: TGI (MDA-MB-435)
3.13 µM: TGI (A498 renal)
4.08 µM: TGI (SF-539 CNS)
